Data published in US20250032510A1, “AMORPHOUS SOLID DISPERSION GANAXOLONE FORMULATION” (MARINUS PHARMACEUTICALS, INC., priority 2021, published 2025).

Experiment: DSC miscibility screening of polymer-surfactant-ganaxolone combinations
Type: physicochemical
Conditions: added to all formulations

Compound: CCCC(CCC)C(=O)O [Valproic acid]
- Effect of addition on crystallinity of the ganaxolone: increased crystallinity
